The assay deals with T1, human full-length recombinant PKC βII (Homo sapiens, UniProt P05771).
T1 construct: Active human full-length recombinant PKC βII; purchased Invitrogen GmbH, Darmstadt, Germany
The assay is described as follows: Determination of PKC βII inhibition (Caliper mobility-shift kinase assay, Fluorescein-RFARKGSLRQKNV peptide substrate). The following applies: example compounds at a final concentration of 1.14 μM (±0.15 μM). The format is biochemical. In short, it runs like this: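 Full-length PKC βII (30 ng/ml in pre-dilution) with PS/DAG/Ca2+ activators, pH 7.4; fluorescein peptide and ATP at 3 μM and 120 μM before mixing. Reaction ran 60 min at 32 °C, was EDTA-stopped, and was read by mobility shift. % inhibition came from product/(substrate+product) peak heights, tested at 1.14 μM final.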

One may read the inhibition as the drop in the measured response relative to a control, in per cent. In general, % Inhibition refers to the share of the control response that was lost under treatment.

SMILES strings stand for the structures.

T1 sequence (P05771 1-673 isoform P05771-2): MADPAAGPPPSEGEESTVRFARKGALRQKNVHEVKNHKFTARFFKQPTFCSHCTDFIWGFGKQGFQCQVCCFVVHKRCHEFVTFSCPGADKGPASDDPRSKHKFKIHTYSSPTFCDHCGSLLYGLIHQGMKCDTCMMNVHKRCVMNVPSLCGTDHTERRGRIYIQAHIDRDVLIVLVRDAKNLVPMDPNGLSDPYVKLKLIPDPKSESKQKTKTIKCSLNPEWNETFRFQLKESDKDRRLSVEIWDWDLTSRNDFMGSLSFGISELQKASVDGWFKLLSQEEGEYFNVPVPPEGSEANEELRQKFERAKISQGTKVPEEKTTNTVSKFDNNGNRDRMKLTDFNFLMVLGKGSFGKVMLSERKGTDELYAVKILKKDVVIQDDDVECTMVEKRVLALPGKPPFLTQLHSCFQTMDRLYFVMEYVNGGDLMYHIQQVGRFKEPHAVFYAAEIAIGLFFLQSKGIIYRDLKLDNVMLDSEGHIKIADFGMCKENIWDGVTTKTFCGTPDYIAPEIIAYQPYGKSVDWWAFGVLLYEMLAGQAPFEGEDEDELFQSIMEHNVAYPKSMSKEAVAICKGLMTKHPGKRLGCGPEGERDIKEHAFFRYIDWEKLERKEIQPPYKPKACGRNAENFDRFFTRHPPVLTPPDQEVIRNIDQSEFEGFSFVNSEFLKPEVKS

In the case of `Cc1cc(O)ccc1-c1cc(C(=O)N2CCNCC2(C)C)c2c(C)n[nH]c2n1` [Example 142, (2,2-Dimethyl-piperazin-1-yl)-[6-(4-hydroxy-2-methyl-phenyl)-3-methyl-1H-pyrazolo[3,4-b]pyridin-4-yl]-methanone], the inhibition at 1.14 µM came out at 98%. As to `CO[C@H]1CNC[C@@H]1NC(=O)c1cc(-c2ccc(O)cc2C)nc2[nH]nc(C)c12` [Example 143, 6-(4-Hydroxy-2-methyl-phenyl)-3-methyl-1H-pyrazolo[3,4-b]pyridine-4-carboxylic acid ((3S,4S)-4-methoxy-pyrrolidin-3-yl)-amide], the inhibition at 1.14 µM turned out to be 84%. Take `Cc1cc(O)ccc1-c1cc(C(=O)N2CCNCC2C(F)(F)F)c2c(C)n[nH]c2n1` (stereo not shown) [Example 144, [6-(4-Hydroxy-2-methyl-phenyl)-3-methyl-1H-pyrazolo[3,4-b]pyridin-4-yl]-(2-trifluoromethyl-piperazin-1-yl)-methanone]: the inhibition at 1.14 µM is 82%.

Consider `Cc1cc(O)ccc1-c1cc(C(=O)N2CCN[C@@H](C)C2)c2c(C)n[nH]c2n1` [Example 145, [6-(4-Hydroxy-2-methyl-phenyl)-3-methyl-1H-pyrazolo[3,4-b]pyridin-4-yl]-((S)-3-methyl-piperazin-1-yl)-methanone], for which the inhibition at 1.14 µM amounted to 92%. In the case of `COc1cccc(C2CNCCN2C(=O)c2cc(-c3ccc(O)cc3C)nc3[nH]nc(C)c23)c1` (stereo not shown) [Example 146, [6-(4-Hydroxy-2-methyl-phenyl)-3-methyl-1H-pyrazolo[3,4-b]pyridin-4-yl]-[2-(3-methoxy-phenyl)-piperazin-1-yl]-methanone], the inhibition at 1.14 µM turned out to be 97%. In the case of `Cc1cc(O)ccc1-c1cc(C(=O)N2CCNCC2c2cccc(F)c2)c2c(C)n[nH]c2n1` (stereo not shown) [Example 147, [2-(3-Fluoro-phenyl)-piperazin-1-yl]-[6-(4-hydroxy-2-methyl-phenyl)-3-methyl-1H-pyrazolo[3,4-b]pyridin-4-yl]-methanone], the inhibition at 1.14 µM came to 96%. For the compound `Cc1cc(O)ccc1-c1cc(C(=O)NCC2(N)CCCCCC2)c2c(C)n[nH]c2n1` [Example 148, 6-(4-Hydroxy-2-methyl-phenyl)-3-methyl-1H-pyrazolo[3,4-b]pyridine-4-carboxylic acid (1-amino-cycloheptylmethyl)-amide], the inhibition at 1.14 µM was 85%. Take `CCC1(NC(=O)c2cc(-c3ccc(O)cc3C)nc3[nH]nc(C)c23)CCCNC1` (stereo not shown) [Example 149, 6-(4-Hydroxy-2-methyl-phenyl)-3-methyl-1H-pyrazolo[3,4-b]pyridine-4-carboxylic acid (3-ethyl-piperidin-3-yl)-amide]: the inhibition at 1.14 µM was found to be 86%.

For `Cc1cc(O)ccc1-c1cc(C(=O)N2CCNC[C@H]2c2ccccc2)c2c(C)n[nH]c2n1` [Example 150, [6-(4-Hydroxy-2-methyl-phenyl)-3-methyl-1H-pyrazolo[3,4-b]pyridin-4-yl]-((R)-2-phenyl-piperazin-1-yl)-methanone], the inhibition at 1.14 µM came out at 100%. On the same count and under the same terms, in the case of `Cc1cc(O)ccc1-c1cc(C(=O)N2CCNCC2c2ccccc2F)c2c(C)n[nH]c2n1` (stereo not shown) [Example 151, [2-(2-Fluoro-phenyl)-piperazin-1-yl]-[6-(4-hydroxy-2-methyl-phenyl)-3-methyl-1H-pyrazolo[3,4-b]pyridin-4-yl]-methanone] it was 96%; in that of `Cc1cc(O)ccc1-c1cc(C(=O)N2CCNCC2c2ccc(F)cc2F)c2c(C)n[nH]c2n1` (stereo not shown) [Example 152, [2-(2,4-Difluoro-phenyl)-piperazin-1-yl]-[6-(4-hydroxy-2-methyl-phenyl)-3-methyl-1H-pyrazolo[3,4-b]pyridin-4-yl]-methanone], 94%.

As to `Cc1cc(O)ccc1-c1cc(C(=O)N2CCNCC2c2ccccc2Cl)c2c(C)n[nH]c2n1` (stereo not shown) [Example 153, [2-(2-Chloro-phenyl)-piperazin-1-yl]-[6-(4-hydroxy-2-methyl-phenyl)-3-methyl-1H-pyrazolo[3,4-b]pyridin-4-yl]-methanone], the inhibition at 1.14 µM came to 89%. Still for that read-out and setting: under `Cc1cc(O)ccc1-c1cc(C(=O)N2CCNCC2c2ccc(C(F)(F)F)cc2)c2c(C)n[nH]c2n1` (stereo not shown) [Example 154, [6-(4-Hydroxy-2-methyl-phenyl)-3-methyl-1H-pyrazolo[3,4-b]pyridin-4-yl]-[2-(4-trifluoromethyl-phenyl)-piperazin-1-yl]-methanone] stands 94%.

As for `Cc1cc(O)ccc1-c1cc(C(=O)N2CC(C)(C)NCC2(C)C)c2c(C)n[nH]c2n1` [Example 155, [6-(4-Hydroxy-2-methyl-phenyl)-3-methyl-1H-pyrazolo[3,4-b]pyridin-4-yl]-(2,2,5,5-tetramethyl-piperazin-1-yl)-methanone], the inhibition at 1.14 µM was 88%. In the case of `Cc1cc(O)cc(C)c1-c1cc(C(=O)N2CCNCC2(C)C)c2c(C)n[nH]c2n1` [Example 156, (2,2-Dimethyl-piperazin-1-yl)-[6-(4-hydroxy-2,6-dimethyl-phenyl)-3-methyl-1H-pyrazolo[3,4-b]pyridin-4-yl]-methanone], the inhibition at 1.14 µM was determined as 26%.

On to `CC1(C)CNCCN1C(=O)c1cc(-c2ccc(O)cc2)nc2[nH]nc(C3CC3)c12` [Example 157, [3-Cyclopropyl-6-(4-hydroxy-phenyl)-1H-pyrazolo[3,4-b]pyridin-4-yl]-(2,2-dimethyl-piperazin-1-yl)-methanone], for which the inhibition at 1.14 µM was 91%.

As for `O=C(c1cc(-c2ccc(O)cc2)nc2[nH]nc(C3CC3)c12)N1CCNC[C@H]1c1ccccc1` [Example 158, [3-Cyclopropyl-6-(4-hydroxy-phenyl)-1H-pyrazolo[3,4-b]pyridin-4-yl]-((R)-2-phenyl-piperazin-1-yl)-methanone], the inhibition at 1.14 µM is 78%. Consider `CCc1n[nH]c2nc(-c3ccc(O)cc3)cc(C(=O)NC3CN4CCC3CC4)c12` (stereo not shown) [Example 159, 3-Ethyl-6-(4-hydroxy-phenyl)-1H-pyrazolo[3,4-b]pyridine-4-carboxylic acid (1-aza-bicyclo[2.2.2]oct-3-yl)-amide], for which the inhibition at 1.14 µM is 55%. Take `CCc1n[nH]c2nc(-c3ccc(O)cc3)cc(C(=O)N3CC(N)C3)c12` [Example 160, (3-Amino-azetidin-1-yl)-[3-ethyl-6-(4-hydroxy-phenyl)-1H-pyrazolo[3,4-b]pyridin-4-yl]-methanone]: the inhibition at 1.14 µM turned out to be 49%. Same read-out and setting: in the case of `CCc1n[nH]c2nc(-c3ccc(O)cc3)cc(C(=O)N[C@H]3CNC[C@@H]3OC)c12` [Example 161, 3-Ethyl-6-(4-hydroxy-phenyl)-1H-pyrazolo[3,4-b]pyridine-4-carboxylic acid ((3S,4S)-4-methoxy-pyrrolidin-3-yl)-amide] it was 77%; in that of `CCc1n[nH]c2nc(-c3ccc(O)cc3)cc(C(=O)N[C@@H]3CN4CCC3CC4)c12` [Example 162, (S)-3-Ethyl-6-(4-hydroxy-phenyl)-1H-pyrazolo[3,4-b]pyridine-4-carboxylic acid (1-aza-bicyclo[2.2.2]oct-3-yl)-amide], 51%; in that of `CCc1n[nH]c2nc(-c3ccc(O)cc3)cc(C(=O)NC3CC4CCC(C3)N4C)c12` (stereo not shown) [Example 163, 3-Ethyl-6-(4-hydroxy-phenyl)-1H-pyrazolo[3,4-b]pyridine-4-carboxylic acid (8-methyl-8-aza-bicyclo[3.2.1]oct-3-yl)-amide], 57%. Turning to `CCc1n[nH]c2nc(-c3ccc(O)cc3)cc(C(=O)NC3CC4CCC(C3)N4C)c12` [Example 164, 3-Ethyl-6-(4-hydroxy-phenyl)-1H-pyrazolo[3,4-b]pyridine-4-carboxylic acid ((3R)-8-methyl-8-aza-bicyclo[3.2.1]oct-3-yl)-amide], the “% Inhibition” value is 53%. Regarding `CCc1n[nH]c2nc(-c3ccc(O)cc3)cc(C(=O)N3CCNC(C)C3)c12` (stereo not shown) [Example 165, [3-Ethyl-6-(4-hydroxy-phenyl)-1H-pyrazolo[3,4-b]pyridin-4-yl]-(3-methyl-piperazin-1-yl)-methanone], the inhibition at 1.14 µM stood at 92%. Take `CCc1n[nH]c2nc(-c3ccc(O)cc3)cc(C(=O)N3CCC(N)CC3)c12` [Example 166, (4-Amino-piperidin-1-yl)-[3-ethyl-6-(4-hydroxy-phenyl)-1H-pyrazolo[3,4-b]pyridin-4-yl]-methanone]: the inhibition at 1.14 µM was 87%. As to `CCc1n[nH]c2nc(-c3ccc(O)cc3)cc(C(=O)N3CCC4CNCC43)c12` (stereo not shown) [Example 167, [3-Ethyl-6-(4-hydroxy-phenyl)-1H-pyrazolo[3,4-b]pyridin-4-yl]-(hexahydro-pyrrolo[3,4-b]pyrrol-1-yl)-methanone], the inhibition at 1.14 µM is 58%.

`CCc1n[nH]c2nc(-c3ccc(O)cc3)cc(C(=O)NC3CCNC4(CCC4)C3)c12` (stereo not shown) [Example 168, 3-Ethyl-6-(4-hydroxy-phenyl)-1H-pyrazolo[3,4-b]pyridine-4-carboxylic acid (5-aza-spiro[3.5]non-8-yl)-amide]: the inhibition at 1.14 µM stood at 44%.

As for `CCc1n[nH]c2nc(-c3ccc(O)cc3)cc(C(=O)N3CC4(CCNCC4)C3)c12` [Example 169, (2,7-Diaza-spiro[3.5]non-2-yl)-[3-ethyl-6-(4-hydroxy-phenyl)-1H-pyrazolo[3,4-b]pyridin-4-yl]-methanone], the inhibition at 1.14 µM stood at 84%. In the case of `CCc1n[nH]c2nc(-c3ccc(O)cc3)cc(C(=O)NC3CCCC(N)C3)c12` (stereo not shown) [Example 170, 3-Ethyl-6-(4-hydroxy-phenyl)-1H-pyrazolo[3,4-b]pyridine-4-carboxylic acid (3-amino-cyclohexyl)-amide], the inhibition at 1.14 µM is 59%. For the compound `CCc1n[nH]c2nc(-c3ccc(O)cc3)cc(C(=O)N3CCC4(CC3)CNC4)c12` [Example 171, (2,7-Diaza-spiro[3.5]non-7-yl)-[3-ethyl-6-(4-hydroxy-phenyl)-1H-pyrazolo[3,4-b]pyridin-4-yl]-methanone], the inhibition at 1.14 µM worked out at 77%. For the compound `CCc1n[nH]c2nc(-c3ccc(O)cc3)cc(C(=O)N3CCC4(CCNC4)C3)c12` (stereo not shown) [Example 172, (2,7-Diaza-spiro[4.4]non-2-yl)-[3-ethyl-6-(4-hydroxy-phenyl)-1H-pyrazolo[3,4-b]pyridin-4-yl]-methanone], the inhibition at 1.14 µM turned out to be 67%.

The values are drawn from patent US8686150B2 (Sanofi, priority 2011, dated 2014).
